In ChEMBL document CHEMBL4834434, “Discovery of Novel and Potent N-Methyl-d-aspartate Receptor Positive Allosteric Modulators with Antidepressant-like Activity in Rodent Models” (J Med Chem, 2021):
pEC50: −log10 of the molar value. The source made the active and inactive calls. The rule behind the calls is not given here.

Columns and labels:
[1] = Brain to blood partition coefficient of the compound; format: physicochemical, tissue-based; conditions: read-out: logBB (converted)
[2] = Cytotoxicity against African green monkey Vero cells assessed as cell growth inhibition at 120 uM measured after 48 hrs by CCK8 assay relative to control; format: cell-based; conditions: chlorocebus sabaeus
[3] = Cytotoxicity against human HEK293 cells assessed as cell growth inhibition at 120 uM measured after 48 hrs by CCK8 assay relative to control; format: cell-based
[4] = molecular target: T1, Glutamate NMDA receptor (Mus musculus) (UniProt P35436+Q91ZU9+Q03391+P35438+Q01097+Q01098+A2AIR5); test: Positive allosteric modulation of C57BL/6 mouse NMDA receptor assessed as fold change in compound potentiated NMDA-induced current relative to NMDA current alone at 30 uM measured after 15 to 30 mins by patch-clamp method; format: tissue-based; conditions: Brain, filed as positive allosteric modulator, time 15-30 min
Glutamate NMDA receptor [5] = test: Positive allosteric modulation of C57BL/6 mouse NMDA receptor assessed as potentiation of NMDA-induced current in presence of saturating glutamate by patch-clamp method; format: tissue-based, Brain
[6] = Effect on locomotor activity in ICR mouse assessed as hyperlocomotion at 10 mg/kg, ip measured after 90 mins; format: ADME, organism-based; conditions: in vivo, 1.5 h
hERG (KCNH2) [7] = molecular target: T2, hERG (KCNH2) (Homo sapiens, UniProt Q12809); test: Inhibition of human ERG expressed in CHO cells at 30 uM with holding potential at -80 to -60 mV for 500s followed by raise in potential at +30 mV for 2 sec and subsequent repolarization to -60 mV for 2 sec by whole-cell patch clamp method relative to control; format: cell-based; conditions: CHO cells expressing human ERG
T2 sequence (Q12809 whole entry): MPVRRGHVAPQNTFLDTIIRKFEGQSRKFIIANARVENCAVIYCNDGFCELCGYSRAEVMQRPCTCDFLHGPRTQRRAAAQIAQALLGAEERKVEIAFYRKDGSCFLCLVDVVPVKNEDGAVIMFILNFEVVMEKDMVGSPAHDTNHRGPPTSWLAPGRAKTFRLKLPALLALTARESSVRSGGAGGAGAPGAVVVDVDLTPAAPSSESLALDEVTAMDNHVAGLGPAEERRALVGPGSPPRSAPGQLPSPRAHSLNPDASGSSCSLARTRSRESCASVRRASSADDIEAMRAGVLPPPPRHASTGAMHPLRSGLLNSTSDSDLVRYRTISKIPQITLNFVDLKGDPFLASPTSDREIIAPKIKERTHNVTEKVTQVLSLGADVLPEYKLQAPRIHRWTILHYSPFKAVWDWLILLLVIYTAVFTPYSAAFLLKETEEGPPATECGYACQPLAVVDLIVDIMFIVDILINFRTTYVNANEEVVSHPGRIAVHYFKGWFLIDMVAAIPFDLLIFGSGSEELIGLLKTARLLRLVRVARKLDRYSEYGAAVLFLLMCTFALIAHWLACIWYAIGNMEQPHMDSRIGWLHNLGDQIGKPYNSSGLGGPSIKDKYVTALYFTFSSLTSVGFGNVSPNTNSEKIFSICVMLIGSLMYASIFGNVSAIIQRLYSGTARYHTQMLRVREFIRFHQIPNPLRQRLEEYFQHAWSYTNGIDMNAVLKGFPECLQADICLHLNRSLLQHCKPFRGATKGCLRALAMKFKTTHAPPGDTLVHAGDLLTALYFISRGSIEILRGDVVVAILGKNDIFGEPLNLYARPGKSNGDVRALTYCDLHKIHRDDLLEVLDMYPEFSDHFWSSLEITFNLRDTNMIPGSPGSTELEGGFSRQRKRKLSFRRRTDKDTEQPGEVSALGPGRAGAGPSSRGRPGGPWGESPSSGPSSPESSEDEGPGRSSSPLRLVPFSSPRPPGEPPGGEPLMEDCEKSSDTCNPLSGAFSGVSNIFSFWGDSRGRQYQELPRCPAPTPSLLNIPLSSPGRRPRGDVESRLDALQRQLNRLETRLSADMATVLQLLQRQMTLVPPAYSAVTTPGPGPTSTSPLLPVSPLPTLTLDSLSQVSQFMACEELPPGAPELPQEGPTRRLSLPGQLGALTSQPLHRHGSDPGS

[8] = Cytotoxicity against African green monkey Vero cells assessed as cell growth inhibition at 60 uM measured after 48 hrs by CCK8 assay relative to control; format: cell-based; conditions: chlorocebus sabaeus
[9] = Cytotoxicity against mouse L929 cells assessed as cell growth inhibition at 120 uM measured after 48 hrs by CCK8 assay relative to control; format: cell-based
[10] = Cytotoxicity against mouse L929 cells assessed as cell growth inhibition at 60 uM measured after 48 hrs by CCK8 assay relative to control; format: cell-based
[11] = molecular target: T1, Glutamate NMDA receptor (Mus musculus); test: Positive allosteric modulation of C57BL/6 mouse NMDA receptor assessed as fold change in compound potentiated NMDA-induced current relative to NMDA current alone in presence of saturating glutamate by patch-clamp method; format: tissue-based; conditions: Brain, filed as positive allosteric modulator
Mus musculus [12] = test: Antidepressant activity in ICR mouse aassessed as inhibition of apomorphine-induced climbing behaviour at 10 mg/kg, ip administered prior to APO challenge and measured after 30 mins; format: functional, organism-based
Mus musculus [13] = test: Antidepressant activity in ICR mouse assessed as decrease in immobility time at 30 mg/kg, ip measured after 26 mins by forced swim test; format: functional, organism-based
[14] = Effect on locomotor activity in ICR mouse assessed as hypolocomotion at 10 mg/kg, ip measured after 90 mins; format: ADME, organism-based; conditions: in vivo, 1.5 h
[15] = Cytotoxicity against human HEK293 cells assessed as cell growth inhibition at 60 uM measured after 48 hrs by CCK8 assay relative to control; format: cell-based
Mus musculus [16] = test: Antidepressant activity in ICR mouse assessed as decrease in immobility time at 3 to 10 mg/kg, ip measured after 26 mins by forced swim test; format: functional, organism-based; conditions: dose 3-10 mg/kg
hERG (KCNH2) [17] = molecular target: T2, hERG (KCNH2); test: Inhibition of human ERG expressed in CHO cells at 100 uM with holding potential at -80 to -60 mV for 500s followed by raise in potential at +30 mV for 2 sec and subsequent repolarization to -60 mV for 2 sec by whole-cell patch clamp method relative to control; format: cell-based; conditions: CHO cells expressing human ERG
[18] = molecular target: Ionotropic glutamate receptor NMDA 1/2C (Homo sapiens) (UniProt Q05586+Q14957); test: Positive allosteric modulation of GluN1/GluN2C (unknown origin) expressed in HEK293 cells assessed as enhancement of current induced by […] and glycine at 30 uM by whole-cell patch clamp method; format: cell-based
[19] = molecular target: Glutamate NMDA receptor; GRIN1/GRIN2B (Homo sapiens) (UniProt Q05586+Q13224); test: Positive allosteric modulation of GluN1/GluN2B (unknown origin) expressed in HEK293 cells assessed as enhancement of current induced by […] and glycine at 30 uM by whole-cell patch clamp method; format: cell-based
Mus musculus [20] = test: Antidepressant activity in icv dosed CSDS-induced C57BL/6N mouse model assessed as reversal of reduction in CSDS-induced social interaction administered for 10 days by social interaction test; format: functional, organism-based; conditions: time 10.0 day
[21] = molecular target: T1, Glutamate NMDA receptor (Mus musculus); test: Positive allosteric modulation of ICR mouse primary cortical neuron NMDA receptor assessed as potentiation of NMDA-induced current at 10 uM in absence of exogenous glycine/D-serine by whole-cell patch clamp method; format: tissue-based
[22] = molecular target: T3, Glutamate NMDA receptor; GRIN1/GRIN2A (Homo sapiens) (UniProt Q05586+Q12879); test: Effect on GluN1/GluN2A (unknown origin) expressed in HEK293 cells assessed as enhancement of glycine-induced current at 30 uM by whole-cell patch clamp method; format: cell-based
Glutamate NMDA receptor [23] = test: Positive allosteric modulation of ICR mouse primary cortical neuron NMDA receptor assessed as potentiation of NMDA-induced current in presence of 30 uM exogenous glycine by whole-cell patch clamp method (reference value: 23.9 +/- 1.3 uM); format: tissue-based, Brain
[24] = molecular target: T1, Glutamate NMDA receptor (Mus musculus); test: Positive allosteric modulation of C57BL/6 mouse NMDA receptor assessed as potentiation of NMDA-induced current by measuring peak current amplitude at 30 uM measured after 15 to 30 mins by patch-clamp method (reference value: 54.6 +/- 4.6 pA); format: tissue-based; conditions: Brain, filed as positive allosteric modulator, time 15-30 min
Glutamate NMDA receptor [25] = test: Positive allosteric modulation of ICR mouse primary cortical neuron NMDA receptor assessed as potentiation of glycine-induced current in presence of 100 uM NMDA by whole-cell patch clamp method; format: tissue-based, Brain
[26] = molecular target: T1, Glutamate NMDA receptor (Mus musculus); test: Positive allosteric modulation of ICR mouse primary cortical neuron NMDA receptor assessed as potentiation of NMDA-induced maximum current by whole-cell patch clamp method; format: tissue-based; conditions: Brain
Neuron [27] = test: Effect on AMPA receptor in ICR mouse hippocampal neuron assessed as increase in AMPA-induced current at 30 uM; format: tissue-based
[28] = molecular target: Ionotropic glutamate receptor NMDA 1/2D (Homo sapiens) (UniProt Q05586+O15399); test: Negative allosteric modulation of GluN1/GluN2D (unknown origin) expressed in HEK293 cells assessed as inhibition of current induced by […] and glycine at 30 uM by whole-cell patch clamp method; format: cell-based; conditions: filed as negative allosteric modulator
Neuron [29] = test: Effect on GABA receptor in ICR mouse hippocampal neuron assessed as increase in GABA-induced current at 30 uM; format: tissue-based
[30] = molecular target: T3, Glutamate NMDA receptor; GRIN1/GRIN2A (Homo sapiens); test: Positive allosteric modulation of GluN1/GluN2A (unknown origin) expressed in HEK293 cells assessed as enhancement of current induced by […] and glycine at 30 uM by whole-cell patch clamp method; format: cell-based; conditions: filed as positive allosteric modulator
[31] = molecular target: T3, Glutamate NMDA receptor; GRIN1/GRIN2A (Homo sapiens); test: Effect on GluN1/GluN2A (unknown origin) expressed in HEK293 cells assessed as enhancement of NMDA-induced current at 30 uM by whole-cell patch clamp method; format: cell-based
[32] = molecular target: T1, Glutamate NMDA receptor (Mus musculus); test: Positive allosteric modulation of ICR mouse primary cortical neuron NMDA receptor assessed as potentiation of NMDA-induced current at 10 uM in presence of 30 uM exogenous glycine by whole-cell patch clamp method; format: tissue-based; conditions: Brain
Mus musculus [33] = test: Antidepressant activity in icv dosed C57BL/6N mouse assessed as decrease in immobility time measured after 36 mins; format: functional, organism-based

**Q.** With `Cc1cc(C)n(Cc2ccc(C(=O)Nc3ccc(F)cc3C)s2)n1` as the molecule, how does the Kp [1] read?
**A.** The Kp was 0.794.

**Q.** And the inhibition at 48 h, 120 µM [2]?
**A.** The inhibition at 48 h, 120 µM was 8.7%.

**Q.** And the inhibition at 48 h, 120 µM [3]?
**A.** Its inhibition at 48 h, 120 µM is 34.4%.

**Q.** What about the fold change (FC) [4] of the same molecule?
**A.** The fold change (FC) was 10.1.

**Q.** And the pEC50 (Glutamate NMDA receptor [5])?
**A.** The pEC50 was 5.11.

**Q.** And the Activity [6]?
**A.** The Activity was “Non-Toxic”.

**Q.** What about the inhibition at 2 s, 30 µM (hERG (KCNH2) [7]) of the same molecule?
**A.** Its inhibition at 2 s, 30 µM is 33.4%.

**Q.** What about the inhibition at 48 h, 60 µM [8] of the same molecule?
**A.** The inhibition at 48 h, 60 µM was -1.5%.

**Q.** What about the inhibition at 48 h, 120 µM [9] of the same molecule?
**A.** The inhibition at 48 h, 120 µM was 23.9%.

**Q.** And the inhibition at 48 h, 60 µM [10]?
**A.** Its inhibition at 48 h, 60 µM is 11.5%.

**Q.** What about the fold change (FC) [11] of the same molecule?
**A.** Its fold change (FC) is 10.2.

**Q.** What about the Activity (Mus musculus [12]) of the same molecule?
**A.** Its Activity is “inactive”.

**Q.** What about the Activity (Mus musculus [13]) of the same molecule?
**A.** The Activity was “Active”.

**Q.** And the Activity [14]?
**A.** The Activity was “Non-Toxic”.

**Q.** What about the inhibition at 48 h, 60 µM [15] of the same molecule?
**A.** The inhibition at 48 h, 60 µM was 16.3%.

**Q.** And the Activity (Mus musculus [16])?
**A.** Its Activity is “inactive”.

**Q.** And the inhibition at 2 s, 100 µM (hERG (KCNH2) [17])?
**A.** Its inhibition at 2 s, 100 µM is 47.6%.

**Q.** For `Cc1cc(C)n(Cc2ccc(C(=O)Nc3ccc(Br)cc3C)o2)n1`, which Kp [1] is on record?
**A.** The Kp was 0.661.

**Q.** What about the Activity [18] of the same molecule?
**A.** Its Activity is “inactive”.

**Q.** What about the Activity [19] of the same molecule?
**A.** Its Activity is “inactive”.

**Q.** What about the fold change (FC) [4] of the same molecule?
**A.** Its fold change (FC) is 32.

**Q.** And the Activity (Mus musculus [20])?
**A.** Its Activity is “Active”.

**Q.** What about the pEC50 (Glutamate NMDA receptor [5]) of the same molecule?
**A.** Its pEC50 is 5.06.

**Q.** What about the Activity [21] of the same molecule?
**A.** Its Activity is “inactive”.

**Q.** And the Activity [22]?
**A.** The Activity was “inactive”.

**Q.** And the pEC50 (Glutamate NMDA receptor [23])?
**A.** The pEC50 was 4.87.

**Q.** What about the Activity [24] of the same molecule?
**A.** The Activity was 1180 pA.

**Q.** What about the pEC50 (Glutamate NMDA receptor [25]) of the same molecule?
**A.** The pEC50 was 4.93.

**Q.** And the Activity [26]?
**A.** The Activity was “inactive”.

**Q.** And the fold change (FC) [11]?
**A.** The fold change (FC) was 3.8.

**Q.** And the Activity (Neuron [27])?
**A.** Its Activity is “inactive”.

**Q.** And the Activity [28]?
**A.** Its Activity is “Active”.

**Q.** What about the Activity (Neuron [29]) of the same molecule?
**A.** The Activity was “inactive”.

**Q.** What about the Activity [30] of the same molecule?
**A.** Its Activity is “Active”.

**Q.** And the Activity [31]?
**A.** Its Activity is “inactive”.

**Q.** And the Activity [32]?
**A.** Its Activity is “inactive”.

**Q.** What about the Activity (Mus musculus [33]) of the same molecule?
**A.** Its Activity is “Active”.
